From patent EP2386565A2, “Compounds and methods to inhibit or augment an inflammatory response” (Cambridge Enterprise Ltd., priority 1999, dated 2000)
Positions of bridges follow the written chain, without caps; N, C: chain ends. Non-standard residues stand in square brackets, D forms with d. Residues, ends and D or L forms follow the SMILES beside them.

Columns and labels:
D2s dopamine receptors = molecular target: T1, D2s dopamine receptors (Homo sapiens, UniProt P14416); assay: Competition of 3H-spiperone binding to membranes; settings: 100 µM highest concentration tested
T1 construct: purchased RBI/Sigma D-179; host or cells: membranes
Experimental: For dopamine receptor binding, membranes (D-179, RBI/Sigma) are diluted into binding buffer (75 mM Tris pH 7.4, 12.5 mM MgCl2 and 2 mM EDTA). For example, 10 µl of membranes are diluted in 500 µl of binding buffer (i.e., 1:50 dilution), which is aliquoted into labelled tubes. Cold competitor or test competitor is added, (e.g., 5 µl of 100x stock solution; 5 µl of 1 mM haloperidol solution (H-100, RBI/Sigma in DMSO). Radioligand is then added (^3H-Spiperone, TRK 818, Amersham, 250 µCi in 250 µl, 10.5 µM at 95 Ci/mmol). For competition studies, 0.5 nM is used. A 100x stock (i.e., 50 nM) is made by diluting the commercial stock 1:210 in binding buffer, and 5 µl is added to every tube. Control tubes have radioligand but no membranes. The mixtures are vortexed, then spun very briefly. The mixtures are then incubated for 1 hour at 27°C in a water bath. The mixture is filtered through GF/C filters over a vacuum. Each filter is pre-soaked in polyethyleneimine (0.3% in water; add 1 ml of 10% stock (P-261; RBI/Sigma) to 33 ml of MilliQ water). The tubes are washed with 2-3 ml of wash buffer (50 mM Tris pH 7.4) and the wash filtered. The filters are then rinsed with 3 × 5 ml of wash buffer, air dried, placed in a scintillation vial and 4.5 ml of scintillant added. The activity on the filter is then determined.

[1] = system: MIP1α induced human monocyte migration; assay: Migration of freshly prepared peripheral blood monocytes, MIP1α; type: cell-based
Experimental: Agents may also be screened in a chemotactic assay which employs human neutrophils, eosinophils, mast cells, basophils, platelets, lymphocytes or monocytes. For monocytes, 9 mls of fresh blood are transferred to a tube containing 1 ml of 3.8% sodium citrate, and left at room temperature for 15 minutes. Five mls of this anti-coagulated blood are carefully layered over 3.5 ml Polymorphprep® (Nycomed Pharma, Oslo), and centrifuged at 500 g for 35 minutes per the manufacturer's instructions. The top band at the sample/medium interface contains monocytes. The monocytes are carefully removed with a glass pipette, and reconstituted to the original volume (5 ml). The cells are washed with PBS plus 10% fetal calf serum, and centrifuged at 400 g for 10 minutes. The washing step is repeated three times before the cells are counted. Cells are resuspended at 1 × 10^7 cells/ml in RPMI-1640 + 10% fetal calf serum (FCS). The monocytes are cultured for two days at 37°C in a humidified atmosphere of 5% CO2-
On day 2, the cells are counted, spun down, and reconstituted to 1 × 10^7 cells/ml in Gey's balanced salt solution + 1 mg/ml bovine serum albumin (BSA). […]

T1 sequence (P14416 1-414 isoform P14416-2): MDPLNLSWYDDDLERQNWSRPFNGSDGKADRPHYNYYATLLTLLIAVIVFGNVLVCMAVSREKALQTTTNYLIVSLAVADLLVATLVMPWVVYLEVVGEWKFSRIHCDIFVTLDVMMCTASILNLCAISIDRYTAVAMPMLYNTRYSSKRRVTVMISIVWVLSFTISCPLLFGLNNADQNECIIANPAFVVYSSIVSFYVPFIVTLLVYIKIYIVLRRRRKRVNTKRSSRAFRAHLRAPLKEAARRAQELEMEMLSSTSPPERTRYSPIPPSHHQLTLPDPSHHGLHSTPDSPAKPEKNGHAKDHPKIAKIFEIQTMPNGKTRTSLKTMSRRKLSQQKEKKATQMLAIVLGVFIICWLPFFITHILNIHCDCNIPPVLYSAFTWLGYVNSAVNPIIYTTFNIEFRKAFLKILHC

Compound	ED50 for competition of spiperone binding to short splice variant D2 dopamine receptor (D2s dopamine receptors) [µM]	% inhibition at 100 µM versus MIP1α [1]
CC[C@@H](C)[C@H]1NC(=O)[C@@H](CCC(N)=O)NC(=O)[C@H](N)CSSC[C@H](C(N)=O)NC(=O)[C@@H](CC(C)C)NC(=O)[C@@H](CC(=O)O)NC(=O)[C@H]2CCCN2C(=O)[C@@H](CCCCN)NC(=O)[C@@H](CCC(N)=O)NC(=O)[C@@H](CCCCN)NC(=O)[C@@H](Cc2c[nH]c3ccccc23)NC1=O (H-[dC][dQ][dI][dW][dK][dQ][dK][dP][dD][dL][dC]-NH2; disulfide 1-11)	>100	
CC[C@H](C)[C@H](NC(=O)[C@H](C)NC(=O)[C@H](CC(=O)O)NC(=O)[C@@H]1CCCN1C(=O)[C@H](CCC(N)=O)NC(=O)[C@H](C)N)C(=O)N[C@@H](CC(N)=O)C(=O)N[C@@H](C)C(=O)N1CCC[C@H]1C(=O)N[C@H](C(=O)N[C@H](C(=O)N[C@@H](CS)C(=O)N[C@@H](CS)C(=O)O)[C@@H](C)O)C(C)C [Peptide 1] (H-AQPDAINAPVTCC-OH; N-terminus and C-terminus assumed)		n.s.
